Consider one substance from patent US20110151031A1, “COMPOSITIONS AND METHODS FOR UTILIZING THE SAME” (DBC, LLC, priority 2008, published 2011).

Experiment [1] can be described thus: Superoxide dismutase (SOD) activity by ESR in xanthine and xanthine-oxidase system. It is filed as biochemical. As for the experimental part: (§1) In this example, free radical-scavenging ability was determined as an indicator of antioxidant action. Specifically, free radicals produced by xanthine oxidase were determined by 1,1-diphenyl-2-picrylhydrayil (DPPH, Aldrich). First, xanthine oxidase (Aldrich) was dissolved in 0.01 M phosphate buffer. Hypoxanthine was added to this solution, and the solution was warmed at 37° C. to generate free radicals. To this solution, the composition of Example 6 was added. Further, 0.1 M DPPH solution was added to determine absorbance at 520 nm. Superoxide dismutase (SOD) activity was also determined using Electron Spin Resonance (ESR) in xanthine and xanthine-odixase system. In both cases, vitamin E was used as a positive control.

Experiment [2] can be described thus: DPPH radical scavenging test. Format: biochemical. The conditions noted are these: Example 6 at a dose of 0.1 mg/ml; absorbance at 520 nm. As for the experimental part:
as §1
For orientation: Loss of DPPH colour is used to gauge radical scavenging.

For the substance vitamin E [VitaminE], in experiment [1], the SOD activity is recorded as 90 units/g. For the same substance, the “free radical-scavenging ability (DPPH)” value in experiment [2] is recorded as 460 units/g.
